Results taken from PubChem BioAssay (NCI).
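Step 1: Grow cells in 96-well plates. Step 2: Expose to compound for 48 hours at 5 concentrations. Step 3: Interpolate endpoints linearly; if unreached, use highest concentration. At the TGI there is no net growth.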

Tests used:
Test in all cases: DTP human tumour cell line panel, 48 h
A498 renal = system: A498 renal
A549 NSCLC = system: A549 NSCLC
ACHN renal = system: ACHN renal
BT-549 breast = system: BT-549 breast
CAKI-1 renal = system: CAKI-1 renal
CCRF-CEM leukemia = system: CCRF-CEM leukemia
DU-145 prostate = system: DU-145 prostate
EKVX NSCLC = system: EKVX NSCLC
HCC-2998 colon = system: HCC-2998 colon
HCT-116 colon = system: HCT-116 colon
HCT-15 colon = system: HCT-15 colon
HL-60(TB) leukemia = system: HL-60(TB) leukemia
HOP-62 NSCLC = system: HOP-62 NSCLC
HS 578T breast = system: HS 578T breast
HT29 colon = system: HT29 colon
K-562 leukemia = system: K-562 leukemia
KM12 colon = system: KM12 colon
LOX IMVI melanoma = system: LOX IMVI melanoma
M14 melanoma = system: M14 melanoma
MALME-3M melanoma = system: MALME-3M melanoma
MCF7 breast = system: MCF7 breast
MDA-MB-231 breast = system: MDA-MB-231 breast
MDA-MB-435 = system: MDA-MB-435
MDA-N = system: MDA-N
MOLT-4 leukemia = system: MOLT-4 leukemia
NCI-H226 lung = system: NCI-H226 lung
NCI-H23 lung = system: NCI-H23 lung
NCI-H460 lung = system: NCI-H460 lung
OVCAR-3 ovarian = system: OVCAR-3 ovarian
OVCAR-4 ovarian = system: OVCAR-4 ovarian
OVCAR-5 ovarian = system: OVCAR-5 ovarian
RPMI-8226 leukemia = system: RPMI-8226 leukemia
RXF 393 renal = system: RXF 393 renal
SF-268 CNS = system: SF-268 CNS
SF-539 CNS = system: SF-539 CNS
SK-MEL-2 melanoma = system: SK-MEL-2 melanoma
SK-MEL-28 melanoma = system: SK-MEL-28 melanoma
SK-MEL-5 melanoma = system: SK-MEL-5 melanoma
SK-OV-3 ovarian = system: SK-OV-3 ovarian
SN12C renal = system: SN12C renal
SNB-19 CNS = system: SNB-19 CNS
SR leukemia = system: SR leukemia
T-47D breast = system: T-47D breast
TK-10 renal = system: TK-10 renal
U251 CNS = system: U251 CNS
UACC-257 melanoma = system: UACC-257 melanoma
UACC-62 melanoma = system: UACC-62 melanoma
786-0 renal = system: 786-0 renal
COLO 205 colon = system: COLO 205 colon
HOP-92 NSCLC = system: HOP-92 NSCLC
IGROV1 ovarian = system: IGROV1 ovarian
NCI-H522 lung = system: NCI-H522 lung
NCI/ADR-RES ovarian = system: NCI/ADR-RES ovarian
OVCAR-8 ovarian = system: OVCAR-8 ovarian
PC-3 prostate = system: PC-3 prostate
SF-295 CNS = system: SF-295 CNS
SNB-75 CNS = system: SNB-75 CNS
SW-620 colon = system: SW-620 colon
UO-31 renal = system: UO-31 renal

Cc1c(-c2ccccc2)[nH]c2cc(Cl)ccc2c1=O
TGI (A498 renal): > 100 µM | TGI (A549 NSCLC): > 100 µM | TGI (ACHN renal): > 100 µM | TGI (BT-549 breast): > 100 µM | TGI (CAKI-1 renal): > 100 µM | TGI (CCRF-CEM leukemia): > 100 µM | TGI (DU-145 prostate): > 100 µM | TGI (EKVX NSCLC): > 100 µM | TGI (HCC-2998 colon): > 100 µM | TGI (HCT-116 colon): > 100 µM | TGI (HCT-15 colon): > 100 µM | TGI (HL-60(TB) leukemia): > 100 µM | TGI (HOP-62 NSCLC): 60 µM | TGI (HS 578T breast): 65.6 µM | TGI (HT29 colon): > 100 µM | TGI (K-562 leukemia): > 100 µM | TGI (KM12 colon): 18.7 µM | TGI (LOX IMVI melanoma): > 100 µM | TGI (M14 melanoma): > 100 µM | TGI (MALME-3M melanoma): > 100 µM | TGI (MCF7 breast): > 100 µM | TGI (MDA-MB-231 breast): > 100 µM | TGI (MDA-MB-435): > 100 µM | TGI (MDA-N): > 100 µM | TGI (MOLT-4 leukemia): > 100 µM | TGI (NCI-H226 lung): 68 µM | TGI (NCI-H23 lung): > 100 µM | TGI (NCI-H460 lung): > 100 µM | TGI (OVCAR-3 ovarian): > 100 µM | TGI (OVCAR-4 ovarian): 66.3 µM | TGI (OVCAR-5 ovarian): > 100 µM | TGI (RPMI-8226 leukemia): > 100 µM | TGI (RXF 393 renal): 79.5 µM | TGI (SF-268 CNS): > 100 µM | TGI (SF-539 CNS): > 100 µM | TGI (SK-MEL-2 melanoma): > 100 µM | TGI (SK-MEL-28 melanoma): > 100 µM | TGI (SK-MEL-5 melanoma): > 100 µM | TGI (SK-OV-3 ovarian): > 100 µM | TGI (SN12C renal): > 100 µM | TGI (SNB-19 CNS): > 100 µM | TGI (SR leukemia): > 100 µM | TGI (T-47D breast): > 100 µM | TGI (TK-10 renal): > 100 µM | TGI (U251 CNS): 78.1 µM | TGI (UACC-257 melanoma): > 100 µM | TGI (UACC-62 melanoma): > 100 µM

CSC(=S)Nc1cccc(C)n1
TGI (786-0 renal): > 100 µM | TGI (A498 renal): > 100 µM | TGI (A549 NSCLC): > 100 µM | TGI (ACHN renal): > 100 µM | TGI (CAKI-1 renal): > 100 µM | TGI (CCRF-CEM leukemia): > 100 µM | TGI (COLO 205 colon): > 100 µM | TGI (DU-145 prostate): > 100 µM | TGI (EKVX NSCLC): > 100 µM | TGI (HCC-2998 colon): > 100 µM | TGI (HCT-116 colon): > 100 µM | TGI (HCT-15 colon): > 100 µM | TGI (HL-60(TB) leukemia): > 100 µM | TGI (HOP-62 NSCLC): > 100 µM | TGI (HOP-92 NSCLC): > 100 µM | TGI (HS 578T breast): > 100 µM | TGI (HT29 colon): > 100 µM | TGI (IGROV1 ovarian): > 100 µM | TGI (K-562 leukemia): > 100 µM | TGI (KM12 colon): > 100 µM | TGI (LOX IMVI melanoma): > 100 µM | TGI (M14 melanoma): > 100 µM | TGI (MALME-3M melanoma): > 100 µM | TGI (MCF7 breast): > 100 µM | TGI (MDA-MB-231 breast): > 100 µM | TGI (MDA-MB-435): > 100 µM | TGI (MDA-N): > 100 µM | TGI (MOLT-4 leukemia): > 100 µM | TGI (NCI-H226 lung): > 100 µM | TGI (NCI-H23 lung): > 100 µM | TGI (NCI-H460 lung): > 100 µM | TGI (NCI-H522 lung): > 100 µM | TGI (NCI/ADR-RES ovarian): > 100 µM | TGI (OVCAR-3 ovarian): > 100 µM | TGI (OVCAR-4 ovarian): > 100 µM | TGI (OVCAR-5 ovarian): > 100 µM | TGI (OVCAR-8 ovarian): > 100 µM | TGI (PC-3 prostate): > 100 µM | TGI (RPMI-8226 leukemia): > 100 µM | TGI (RXF 393 renal): > 100 µM | TGI (SF-268 CNS): > 100 µM | TGI (SF-295 CNS): > 100 µM | TGI (SF-539 CNS): > 100 µM | TGI (SK-MEL-2 melanoma): > 100 µM | TGI (SK-MEL-28 melanoma): > 100 µM | TGI (SK-MEL-5 melanoma): > 100 µM | TGI (SK-OV-3 ovarian): > 100 µM | TGI (SN12C renal): > 100 µM | TGI (SNB-19 CNS): > 100 µM | TGI (SNB-75 CNS): > 100 µM | TGI (SR leukemia): > 100 µM | TGI (SW-620 colon): > 100 µM | TGI (T-47D breast): > 100 µM | TGI (TK-10 renal): > 100 µM | TGI (U251 CNS): > 100 µM | TGI (UACC-257 melanoma): > 100 µM | TGI (UACC-62 melanoma): > 100 µM | TGI (UO-31 renal): > 100 µM
